Experimental data: patent US20220098203A1 (priority 2018, published 2022)
Read-outs that look alike come from different tables or passages of the source.

Target: T1, MAT2A homodimer (Homo sapiens, UniProt P31153)
T1 construct: inferred from the Ni sepharose purification and imidazole elution; made in house; host or cells: SF9 insect cells, recombinant baculovirus (Bac to Bac, pFASTBAC1)
Assay: MAT2A biochemical assay (liberated phosphate, PiColorLock Gold)
Conditions: read-out: Enzyme Inhibition
Description: Mat2A protein was expressed by recombinant baculovirus in SF9 infected cells using the Bac to Bac system cloned into the pFASTBAC1 vector (Invitrogen, Carlsbad, Calif.). Recombinant MAT2A was isolated from the cell lysate of 150 g of infected cells using HP Ni sepharose column chromatography. Recombinant MAT2A homodimer was eluted with 250 and 500 mM imidazole, and fractions containing MAT2A were identified by sodium dodecyl sulfate polyacrylamide gel electrophoresis and pooled.
Test compound was prepared in 100% dimethyl sulfoxide (DMSO) at 50× the desired final concentration. A 1 μL volume of compound dilution was added to 40 μL of enzyme dilution and the mixture was allowed to equilibrate for 60 minutes at 25° C. The enzymatic assay was initiated by the addition of 10 μL of substrate mix (500 μM ATP, pH 7.0, 400 μM L-methionine in 1× assay buffer), and the mixture was incubated for a further 60 minutes at 25° C. The reaction was halted and the liberated phosphate released by the enzyme in stoichiometric amounts by the production of S-adenosyl methionine (SAM) was measured using the PiColorLock Gold kit (Innova Biosciences, UK). Absolute product amounts were determined by comparison to a standard curve of potassium phosphate buffer, pH 8.0.

[1] = Table 5a, MAT2A biochemical assay

T1 sequence (P31153 whole entry): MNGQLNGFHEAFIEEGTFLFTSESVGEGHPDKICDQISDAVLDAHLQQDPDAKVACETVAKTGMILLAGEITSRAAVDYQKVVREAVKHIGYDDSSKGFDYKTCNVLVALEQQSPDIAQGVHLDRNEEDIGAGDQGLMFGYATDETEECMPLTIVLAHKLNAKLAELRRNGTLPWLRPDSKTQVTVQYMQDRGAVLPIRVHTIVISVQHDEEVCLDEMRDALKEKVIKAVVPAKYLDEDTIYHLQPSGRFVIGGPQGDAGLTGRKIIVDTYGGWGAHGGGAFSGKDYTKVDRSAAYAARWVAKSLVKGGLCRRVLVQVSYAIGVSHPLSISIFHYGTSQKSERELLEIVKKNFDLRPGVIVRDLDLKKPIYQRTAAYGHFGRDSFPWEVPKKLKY

SMILES: COc1ccc(-n2c(=O)c3cnc(SC)nc3n(-c3ccc(OCc4ccccc4)cc3)c2=O)cc1
- IC50 (Table 5b, Additional Examples): > 10000 nM

SMILES: COc1ccc(N2Cc3cnc(NCC(F)(F)F)nc3N(c3ccc(C(=O)N(C)C)cc3)C2=O)cc1
- IC50 (Table 5b, Additional Examples): 100 to 1000 nM

SMILES: COc1ccc(N2Cc3cnc(NCC(F)(F)F)nc3N(c3ccc(C(C)(C)CO)cc3)C2=O)cc1
- IC50 (Table 5b, Additional Examples): 100 to 1000 nM

SMILES: COc1ccc(N2C(=O)N(c3ccc4nn(C)cc4c3)Cc3cnc(NC4CCCC4)nc32)cc1
- IC50 (Table 5b, Additional Examples): 100 to 1000 nM

SMILES: COc1ccc(N2Cc3cnc(NCC(F)(F)F)nc3N(c3ccc(CC(C)O)cc3)C2=O)cc1 (stereo not shown)
- IC50 (Table 5b, Additional Examples): 100 to 1000 nM

SMILES: CCOc1ccc2c(n1)N(c1ccc(OC)cc1)C(=O)N(c1ccc(Cl)cc1)C2
- IC50 (Table 5b, Additional Examples): > 10000 nM

SMILES: COc1ccc(N2Cc3cnc(NCC(F)(F)F)nc3N(c3ccc(C(=O)O)cc3)C2=O)cc1
- IC50 (Table 5b, Additional Examples): > 10000 nM

SMILES: COc1ccc(-n2c(=O)c3cnc(NCC(F)(F)F)nc3n(-c3ccc(OCc4ccccc4)cc3)c2=O)cc1
- IC50 (Table 5b, Additional Examples): > 10000 nM

SMILES: COc1ccc(N2Cc3cnc(NCC4CC4)nc3N(c3ccccc3)C2=O)cc1
- IC50 (Table 5b, Additional Examples): > 10000 nM

SMILES: COc1ccc(N2Cc3cnc(NCC(F)(F)F)nc3N(c3ccc(-c4ccsc4)cc3)C2=O)cc1
- IC50 (Table 5b, Additional Examples): > 10000 nM

SMILES: COc1ccc(N2Cc3cnc(NCC(F)(F)F)nc3N(c3cccc(Br)c3)C2=O)cc1
- IC50 (Table 5b, Additional Examples): > 10000 nM

SMILES: COc1ccc(N2Cc3cnc(NCC(F)(F)F)nc3N(c3ncc(OC)cn3)C2=O)cc1
- IC50 (Table 5b, Additional Examples): > 10000 nM

SMILES: COc1ccc(-n2c(=O)c3cnc(S(C)(=O)=O)nc3n(-c3ccc(OCc4ccccc4)cc3)c2=O)cc1
- IC50 (Table 5b, Additional Examples): > 10000 nM

SMILES: COc1ccc(N2Cc3cnc(NCC(F)(F)F)nc3N(c3ccc(Cl)c(C(F)(F)F)c3)C2=O)cc1
- IC50 (Table 5b, Additional Examples): > 10000 nM

SMILES: COc1ccc(N2Cc3cnc(NCC(F)(F)F)nc3N(c3ccc(-c4ccccc4)cc3)C2=O)cc1
- IC50 (Table 5b, Additional Examples): > 10000 nM

SMILES: COc1ccc(N2C(=O)N(c3ccc4nn(C)cc4c3)Cc3ccc(Nc4ccccc4)nc32)cc1
- IC50 (Table 5b, Additional Examples): > 10000 nM

SMILES: COc1ccc(N2Cc3cnc(NCC(F)(F)F)nc3N(c3ccnnc3)C2=O)cc1
- IC50 (Table 5b, Additional Examples): > 10000 nM

SMILES: COc1ccc(N2C(=O)N(c3ccc4nn(C)cc4c3)Cc3ccc(N4CCC4)nc32)cc1
- IC50 (Table 5b, Additional Examples): > 10000 nM

SMILES: Cn1cc2cc(N3Cc4ccc(OCC(F)F)nc4NC3=O)ccc2n1
- IC50 (Table 5b, Additional Examples): > 10000 nM

SMILES: COc1ccc(N2Cc3cnc(SC)nc3N(c3ccc(Cl)c(C(F)(F)F)c3)C2=O)cc1
- IC50 (Table 5b, Additional Examples): > 10000 nM

SMILES: COc1ccc(N2Cc3cnc(NCC(F)(F)F)nc3N(C3CCNC(=O)C3)C2=O)cc1 (stereo not shown)
- IC50 (Table 5b, Additional Examples): > 10000 nM

SMILES: COc1ccc(N2Cc3cnc(SC)nc3N(c3cccc(Br)c3)C2=O)cc1
- IC50 (Table 5b, Additional Examples): > 10000 nM

SMILES: COc1ccc(N2Cc3cnc(NCC(F)(F)F)nc3N(S(C)(=O)=O)C2=O)cc1
- IC50 (Table 5b, Additional Examples): > 10000 nM

SMILES: COc1ccc(N2Cc3cnc(-n4ccnc4)nc3N(c3ccc(O)cc3)C2=O)cc1
- IC50 (Table 5b, Additional Examples): > 10000 nM

SMILES: CCOc1ccc2c(n1)N(c1ccc(OC(F)F)cc1)C(=O)N(c1ccnc(OC)c1)C2 [Example 111, 1-(4-(difluoromethoxy)phenyl)-7-ethoxy-3-(2-methoxypyridin-4-yl)-3,4-dihydropyrido[2,3-d]pyrimidin-2(1H)-one]
- IC50 [1]: < 100 nM

SMILES: CCOc1ccc2c(n1)N(c1ccc(OC)cc1)C(=O)N(c1ccc(C#N)cc1)C2 [Example 116, 4-(7-ethoxy-1-(4-methoxyphenyl)-2-oxo-1,2-dihydropyrido[2,3-d]pyrimidin-3(4H)-yl)benzonitrile]
- IC50 [1]: 1000 to 10000 nM

SMILES: CCOc1ccc2c(n1)N(c1ccc(OC)cc1)C(=O)N(c1ccc(F)cc1)C2 [Example 117, 7-ethoxy-3-(4-fluorophenyl)-1-(4-methoxyphenyl)-3,4-dihydropyrido[2,3-d]pyrimidin-2(1H)-one]
- IC50 [1]: 100 to 1000 nM

SMILES: CCOc1ccc2c(n1)N(c1ccc(OC)cc1)C(=O)N(c1ccc(NC)cc1)C2 [Example 121, 7-ethoxy-1-(4-methoxyphenyl)-3-(4-(methylamino)phenyl)-3,4-dihydropyrido[2,3-d]pyrimidin-2(1H)-one]
- IC50 [1]: 1000 to 10000 nM

SMILES: CCOc1ccc2c(n1)N(c1ccc(OC)cc1)C(=O)N(c1ccc(C(=O)NC)cc1)C2 [Example 126, 4-(7-ethoxy-1-(4-methoxyphenyl)-2-oxo-1,2-dihydropyrido[2,3-d]pyrimidin-3(4H)-yl)-N-methylbenzamide]
- IC50 [1]: 100 to 1000 nM

SMILES: CCOc1ccc2c(n1)N(c1ccc(OC)cc1)C(=O)N(c1cncs1)C2 [Example 127, ethoxy-1-(4-methoxyphenyl)-3-(thiazol-5-yl)-3,4-dihydropyrido[2,3-d]pyrimidin-2(1H)-one]
- IC50 [1]: 100 to 1000 nM

SMILES: CCOc1ccc2c(n1)N(c1cnc(C(F)(F)F)nc1)C(=O)N(c1ccc3nn(C)cc3c1)C2 [Example 148, 7-ethoxy-3-(2-methyl-2H-indazol-5-yl)-1-(2-(trifluoromethyl)pyrimidin-5-yl)-3,4-dihydropyrido[2,3-d]pyrimidin-2(1H)-one]
- IC50 [1]: 100 to 1000 nM

SMILES: CCOc1ccc2c(n1)N(c1ccc(C(F)(F)F)nc1)C(=O)N(c1ccc3nn(C)cc3c1)C2 [Example 150]
- IC50 [1]: < 100 nM

SMILES: CCOc1ccc2c(n1)N(c1ccc(C)nc1)C(=O)N(c1ccc3nn(C)cc3c1)C2 [Example 151, 7-ethoxy-3-(2-methyl-2H-indazol-5-yl)-1-(6-methylpyridin-3-yl)-3,4-dihydropyrido[2,3-d]pyrimidin-2(1H)-one]
- IC50 [1]: 100 to 1000 nM

SMILES: COc1ccc(N2C(=O)N(c3ccc4nn(C)cc4c3)Cc3ccc(N4CCOCC4)nc32)cc1 [Example 157, 1-(4-methoxyphenyl)-3-(2-methyl-2H-indazol-5-yl)-7-morpholino-3,4-dihydropyrido[2,3-d]pyrimidin-2(1H)-one]
- IC50 [1]: 100 to 1000 nM

SMILES: COc1ccc(N2C(=O)N(c3ccc4nn(C)cc4c3)Cc3ccc(N4CCCC4)nc32)cc1 [Example 158, 1-(4-methoxyphenyl)-3-(2-methyl-2H-indazol-5-yl)-7-(pyrrolidin-1-yl)-3,4-dihydropyrido[2,3-d]pyrimidin-2(1H)-one]
- IC50 [1]: 100 to 1000 nM

SMILES: CCN(CC)c1ccc2c(n1)N(c1ccc(OC)cc1)C(=O)N(c1ccc3nn(C)cc3c1)C2 [Example 159, 7-(diethylamino)-1-(4-methoxyphenyl)-3-(2-methyl-2H-indazol-5-yl)-3,4-dihydropyrido[2,3-d]pyrimidin-2(1H)-one]
- IC50 [1]: 1000 to 10000 nM

SMILES: COc1ccc(N2C(=O)N(c3ccc4nn(C)cc4c3)Cc3ccc(N(C)C)nc32)cc1 [Example 160, 7-(dimethylamino)-1-(4-methoxyphenyl)-3-(2-methyl-2H-indazol-5-yl)-3,4-dihydropyrido[2,3-d]pyrimidin-2(1H)-one]
- IC50 [1]: 100 to 1000 nM

SMILES: [2H]C([2H])([2H])Oc1ccc(N2C(=O)N(c3ccc4nn(C)cc4c3)Cc3ccc(OCCC(F)(F)F)nc32)cc1 [Example 166, 1-(4-methoxy-d3-phenyl)-3-(2-methyl-2H-indazol-5-yl)-7-(3,3,3-trifluoropropoxy)-3,4-dihydropyrido[2,3-d]pyrimidin-2(1H)-one]
- IC50 [1]: 100 to 1000 nM

SMILES: Cn1cc2cc(N3Cc4ccc(OCC(F)F)nc4N(c4ccc5nccn5c4)C3=O)ccc2n1 [Example 171, 7-(2,2-difluoroethoxy)-1-(imidazo[1,2-a]pyridin-6-yl)-3-(2-methyl-2H-indazol-5-yl)-3,4-dihydropyrido[2,3-d]pyrimidin-2(1H)-one]
- IC50 [1]: < 100 nM

SMILES: Cn1cc2cc(N3Cc4ccc(OCC(F)F)nc4N(c4ccc5ncn(C)c5c4)C3=O)ccc2n1 [Example 173, 7-(2,2-difluoroethoxy)-1-(1-methyl-1H-benzo[d]imidazol-6-yl)-3-(2-methyl-2H-indazol-5-yl)-3,4-dihydropyrido[2,3-d]pyrimidin-2(1H)-one]
- IC50 [1]: 100 to 1000 nM

SMILES: Cn1cc2cc(N3Cc4ccc(OCC(F)F)nc4N(c4ccc5ncnn5c4)C3=O)ccc2n1 [Example 174, 1-([1,2,4]triazolo[1,5-a]pyridin-6-yl)-7-(2,2-difluoroethoxy)-3-(2-methyl-2H-indazol-5-yl)-3,4-dihydropyrido[2,3-d]pyrimidin-2(1H)-one]
- IC50 [1]: 100 to 1000 nM

SMILES: COc1ccc(N2Cc3cnc(NCC(F)(F)F)nc3N(c3ccc(S(C)(=O)=O)cc3)C2=O)cc1 [Example 189, 3-(4-methoxyphenyl)-1-(4-(methylsulfonyl)phenyl)-7-((2,2,2-trifluoroethyl)amino)-3,4-dihydropyrimido[4,5-d]pyrimidin-2(1H)-one]
- IC50 [1]: 100 to 1000 nM

SMILES: Cn1cc2cc(N3Cc4cnc(OCC(F)(F)F)nc4N(c4ccc(-c5nc[nH]n5)cc4)C3=O)ccc2n1 [Example 191, 1-(4-(1H-1,2,4-triazol-3-yl)phenyl)-3-(2-methyl-2H-indazol-5-yl)-7-(2,2,2-trifluoroethoxy)-3,4-dihydropyrimido[4,5-d]pyrimidin-2(1H)-one]
- IC50 [1]: < 100 nM

SMILES: COc1ccc(N2Cc3cnc(NCC(F)(F)F)nc3N(c3ccc(-c4cn[nH]n4)cc3)C2=O)cc1 [Example 192, 1-(4-(2H-1,2,3-triazol-4-yl)phenyl)-3-(4-methoxyphenyl)-7-((2,2,2-trifluoroethyl)amino)-3,4-dihydropyrimido[4,5-d]pyrimidin-2(1H)-one]
- IC50 [1]: 100 to 1000 nM

SMILES: COc1ccc(N2Cc3cnc(NCC(F)(F)F)nc3N(c3cn[nH]c3)C2=O)cc1 [Example 194, 3-(4-methoxyphenyl)-1-(1H-pyrazol-4-yl)-7-((2,2,2-trifluoroethyl)amino)-3,4-dihydropyrimido[4,5-d]pyrimidin-2(1H)-one]
- IC50 [1]: 1000 to 10000 nM

SMILES: COc1ccc(N2Cc3cnc(NCC(F)(F)F)nc3N(c3ccc(O)nc3)C2=O)cc1 [Example 197, 1-(6-hydroxypyridin-3-yl)-3-(4-methoxyphenyl)-7-((2,2,2-trifluoroethyl)amino)-3,4-dihydropyrimido[4,5-d]pyrimidin-2(1H)-one]
- IC50 [1]: 1000 to 10000 nM
